ChEMBL document CHEMBL6087385, “Synthesis and biological evaluation of Ribo 7-N/O/S pyrimidine 9-deaza C-nucleoside analogs as new antiviral agents for inhibiting HCV RNA-dependent RNA polymerases” (Eur J Med Chem, 2024)

How the values were obtained:
[1] = Drug metabolism in human Huh-luc/neo cells assessed as triphosphate metabolite formation at 10 uM measured after 24 hrs by HPLC-MS analysis; assay type: ADME, cell-based
[2] = Drug concentration in Sprague-Dawley rat liver at 2 mg/kg, iv measured upto 24 hrs in presence of ATP by LC-MS/MS analysis; assay type: ADME, organism-based; conditions: read-out: Ct
[3] = system: Hepatitis C virus; assay: Antiviral activity against HCV genotype 1a infected in GLuc-1 cells; assay type: functional, organism-based, Hepacivirus hominis
[4] = system: Hepatitis C virus; assay: Anti-viral activity against HCV genotype 1b infected in human Huh-luc cells; assay type: functional, organism-based, Hepacivirus hominis
[5] = system: Hepatitis C virus; assay: Anti-viral activity against HCV genotype 2a infected in Lunet-CD81 cells; assay type: functional, organism-based, Hepacivirus hominis
[6] = Tmax in female mouse at 1 mg/kg, iv by reverse phase chromatography; assay type: ADME, organism-based; conditions: in vivo
[7] = Tmax in Sprague-Dawley rat at 1 mg/kg, iv by reverse phase chromatography; assay type: ADME, organism-based; conditions: in vivo
[8] = Tmax in Sprague-Dawley rat at 5 mg/kg, po by reverse phase chromatography; assay type: ADME, organism-based; conditions: in vivo
[9] = Tmax in Sprague-Dawley rat at 10 mg/kg, po by reverse phase chromatography; assay type: ADME, organism-based; conditions: in vivo
[10] = Tmax in Cynomolgus monkey at 10 mg/kg, po administered for 7 days by reverse phase chromatography; assay type: ADME, organism-based, Macaca fascicularis; conditions: in vivo, time 7 day
[11] = Cmax in Sprague-Dawley rat at 1 mg/kg, iv by reverse phase chromatography; assay type: ADME, organism-based; conditions: in vivo
[12] = Cmax in Sprague-Dawley rat at 10 mg/kg, po by reverse phase chromatography; assay type: ADME, organism-based; conditions: in vivo
[13] = Cmax in Cynomolgus monkey at 10 mg/kg, po administered for 7 days by reverse phase chromatography; assay type: ADME, organism-based, Macaca fascicularis; conditions: in vivo, time 7 day
[14] = Half life in female mouse at 1 mg/kg, iv by reverse phase chromatography; assay type: ADME, organism-based; conditions: in vivo
[15] = Half life in Sprague-Dawley rat at 5 mg/kg, po by reverse phase chromatography; assay type: ADME, organism-based; conditions: in vivo
[16] = Volume of distribution in Sprague-Dawley rat at 1 mg/kg, iv by reverse phase chromatography; assay type: ADME, organism-based; conditions: in vivo
[17] = Volume of distribution in Cynomolgus monkey at 1 mg/kg, iv by reverse phase chromatography; assay type: ADME, organism-based, Macaca fascicularis; conditions: in vivo
[18] = AUC in female mouse at 5 mg/kg, po by reverse phase chromatography; assay type: ADME, organism-based; conditions: in vivo
[19] = AUC in Sprague-Dawley rat at 1 mg/kg, iv by reverse phase chromatography; assay type: ADME, organism-based; conditions: in vivo
[20] = AUC in Sprague-Dawley rat at 10 mg/kg, po by reverse phase chromatography; assay type: ADME, organism-based; conditions: in vivo
[21] = AUC in Cynomolgus monkey at 10 mg/kg, po administered for 7 days by reverse phase chromatography; assay type: ADME, organism-based, Macaca fascicularis; conditions: in vivo, time 7 day
[22] = AUC (0 to infinity) in female mouse at 5 mg/kg, po by reverse phase chromatography; assay type: ADME, organism-based; conditions: in vivo
[23] = AUC (0 to infinity) in Sprague-Dawley rat at 10 mg/kg, po by reverse phase chromatography; assay type: ADME, organism-based; conditions: in vivo
[24] = AUC (0 to infinity) in Cynomolgus monkey at 1 mg/kg, iv by reverse phase chromatography; assay type: ADME, organism-based, Macaca fascicularis; conditions: in vivo
[25] = AUC (0 to infinity) in Cynomolgus monkey at 10 mg/kg, po administered for 7 days by reverse phase chromatography; assay type: ADME, organism-based, Macaca fascicularis; conditions: in vivo, time 7 day
[26] = Oral bioavailability in Sprague-Dawley rat at 10 mg/kg by reverse phase chromatography; assay type: ADME, organism-based; conditions: in vivo
[27] = Oral bioavailability in Cynomolgus monkey at 10 mg/kg administered for 7 days by reverse phase chromatography; assay type: ADME, organism-based, Macaca fascicularis; conditions: in vivo, time 7 day
[28] = Metabolic stability in rat liver microsome assessed as half life in presence of NADPH; assay type: ADME; conditions: liver microsomes
[29] = Metabolic stability in cryopreserved Non human primate hepatocyte assessed as half life in presence of NADPH; assay type: ADME, cell-based; conditions: cryopreserved hepatocytes
[30] = Metabolic stability in cryopreserved human hepatocyte assessed as half life in presence of NADPH; assay type: ADME, cell-based; conditions: cryopreserved hepatocytes
[31] = Genotoxicity in CD-1(ICR)BR mouse assessed as effect on bone marrow cells at 2000 mg/kg, po by micronucleus assay; assay type: toxicity, organism-based; conditions: in vivo
[32] = Genotoxicity in CD-1(ICR)BR mouse assessed as increase in polychromatic erythrocytes at 500 to 2000 mg/kg, po measured after 48 hrs by micronucleus assay; assay type: toxicity, organism-based; conditions: in vivo, dose 500-2000 mg/kg
[33] = Toxicity in rat assessed as change in body weight at 1 to 9 mg/kg, po; assay type: organism-based; conditions: in vivo, dose 1-9 mg/kg
[34] = Toxicity in rat assessed as effect on clinical observations at 1 to 9 mg/kg, po; assay type: organism-based; conditions: in vivo, dose 1-9 mg/kg
[35] = system: Hepatitis C virus; assay: Antiviral activity against Hepatitis C virus infected in Ava5 cells assessed as inhibition of viral RNA replication incubated for 72 hrs by RT-PCR analysis; assay type: functional, organism-based, Hepacivirus hominis; conditions: Ava5, 72 h
[36] = Toxicity in Sprague-Dawley rat assessed as weight loss at 90 mg/kg, po administered as single dose and measured after 14 days; assay type: organism-based; conditions: in vivo, 336 h, time 14 day
[37] = Toxicity in Sprague-Dawley rat assessed as weight loss at 100 mg/kg, po administered as single dose and measured after 14 days; assay type: organism-based; conditions: in vivo, 336 h, time 14 day
[38] = Toxicity in Sprague-Dawley rat assessed as weight loss at 150 mg/kg, po administered as single dose and measured after 14 days; assay type: organism-based; conditions: in vivo, 336 h, time 14 day
[39] = Toxicity in Sprague-Dawley rat assessed as piloerection at 150 mg/kg, po administered as single dose and measured after 14 days; assay type: organism-based; conditions: in vivo, 336 h, time 14 day
[40] = Toxicity in Sprague-Dawley rat assessed as lethargy at 90 mg/kg, po administered as single dose and measured after 14 days; assay type: organism-based; conditions: in vivo, 336 h, time 14 day
[41] = Toxicity in Sprague-Dawley rat assessed as lethargy at 100 mg/kg, po administered as single dose and measured after 14 days; assay type: organism-based; conditions: in vivo, 336 h, time 14 day
[42] = Toxicity in Sprague-Dawley rat assessed as lethargy at 250 mg/kg, po administered as single dose and measured after 14 days; assay type: organism-based; conditions: in vivo, 336 h, time 14 day
[43] = Toxicity in Sprague-Dawley rat assessed as anogenital staining at 100 mg/kg, po administered as single dose and measured after 14 days; assay type: organism-based; conditions: in vivo, 336 h, time 14 day
[44] = Toxicity in Sprague-Dawley rat assessed as anogenital staining at 250 mg/kg, po administered as single dose and measured after 14 days; assay type: organism-based; conditions: in vivo, 336 h, time 14 day
[45] = Toxicity in Sprague-Dawley rat assessed as eyes and nares staining at 250 mg/kg, po administered as single dose and measured after 14 days; assay type: organism-based; conditions: in vivo, 336 h, time 14 day
[46] = Toxicity in Sprague-Dawley rat assessed as diarrhea at 100 mg/kg, po administered as single dose and measured after 14 days; assay type: organism-based; conditions: in vivo, 336 h, time 14 day
[47] = Toxicity in Cynomolgus monkey assessed as weight loss at 100 mg/kg, po administered twice a day; assay type: organism-based, Macaca fascicularis; conditions: in vivo
[48] = Toxicity in Cynomolgus monkey assessed as change in ECG at 100 mg/kg, po administered twice a day; assay type: organism-based, Macaca fascicularis; conditions: in vivo
[49] = Toxicity in Cynomolgus monkey assessed as animal death at 100 to 500 mg/kg, po administered as single dose; assay type: organism-based, Macaca fascicularis; conditions: in vivo, dose 100-500 mg/kg
[50] = Toxicity in Cynomolgus monkey assessed as animal death at 100 mg/kg, po administered twice a day; assay type: organism-based, Macaca fascicularis; conditions: in vivo

With `C[C@@]1(O)[C@H](O)[C@@H](CO)O[C@H]1c1coc2c(N)ncnc12` the Drug metabolism [1] was “metabolite_detected”, the concentration at 24 h [2] was 420 nM and the EC50 [3] was 5.4 µM. For the same compound, the EC50 [4] was 4.7 µM, the EC50 [5] was > 50 µM and the Tmax [6] was 4.98 min. The Tmax [7] was 4.8 min, the Tmax [8] was 30 min and the Tmax [9] was 30 min. It also gave a Tmax [10] of 42 min, a Cmax [11] of 1150 ng/mL and a Cmax [12] of 1180 ng/mL. For the same compound, the Cmax [13] was 2510 ng/mL, the half-life [14] was 1340 min and the half-life [15] was 551 min. The Vd [16] was 33.2 L/kg, the Vd [17] was 8.67 L/kg and the AUC [18] was 3250 ng·h/mL. For the same compound, the AUC [19] was 699 ng·h/mL, the AUC [20] was 4980 ng·h/mL and the AUC at 168 h [21] was 7260 ng·h/mL. For the same compound, the AUC(0-inf) [22] was 4220 ng·h/mL, the AUC(0-inf) [23] was 5650 ng·h/mL and the AUC(0-inf) [24] was 2340 ng·h/mL. For the same compound, the AUC(0-inf) [25] was 8010 ng·h/mL, the bioavailability [26] was 71.2% and the bioavailability [27] was 37.6%. The half-life [28] was > 100 min, the half-life [29] was > 60 min and the half-life [30] was > 60 min. For the same compound, the Activity [31] was “Toxic”, the Activity [32] was “Toxic” and the Activity [33] was “Non-toxic”. For the same compound, the Activity [34] was “Non-toxic”, the EC50 [35] was 6.5 µM and the Activity [36] was “Toxic”. The Activity [37] was “Non-toxic”, the Activity [38] was “Toxic” and the Activity [39] was “Toxic”. The Activity [40] was “Non-toxic”, the Activity [41] was “Non-toxic” and the Activity [42] was “Non-toxic”. The Activity [43] was “Non-toxic”, the Activity [44] was “Non-toxic” and the Activity [45] was “Non-toxic”. For the same compound, the Activity [46] was “Non-toxic”, the Activity [47] was “Non-toxic” and the Activity [48] was “Non-toxic”. For the same compound, the Activity [49] was “Non-toxic” and the Activity [50] was “Non-toxic”.
